The record followed here is PubChem BioAssay (NCI).

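Interpolation was linear, between the two tested concentrations surrounding the appropriate level; five concentrations were tested over 48 hours in 96-well plates. GI50 = concentration required for 50% inhibition of growth. The concentration for full growth arrest is given as TGI.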

Some test systems named below: SNB-19 CNS; HT29 colon; RXF 393 renal; PC-3 prostate; IGROV1 ovarian; SW-620 colon; MOLT-4 leukemia; DU-145 prostate; MCF7 breast; M14 melanoma.
What all share (experiment): NCI-60 cell line screen, 48 h

Turning to `CC12OC(C(=O)C13CCC3)C1C(=O)c3c(O)ccc(O)c3C(=O)C12` (stereo unspecified), the GI50 in the experiment on SNB-19 CNS is 14.7 µM; in the experiment on HT29 colon, 0.897 µM; in the experiment with RXF 393 renal it was 1.41 µM; in the experiment on PC-3 prostate it was 2.72 µM; in the experiment on IGROV1 ovarian it was 3.3 µM; with SW-620 colon, 1.39 µM. Besides, the GI50 in the experiment on MOLT-4 leukemia is 0.123 µM; with DU-145 prostate, 5.01 µM; with MCF7 breast, 1.49 µM; in the experiment on M14 melanoma, 0.669 µM. For the same compound, the TGI in the experiment with SNB-19 CNS is more than 50.5 µM; in the experiment with HT29 colon, more than 51.6 µM; with RXF 393 renal, 3.3 µM; in the experiment on PC-3 prostate it was 9.09 µM; in the experiment on IGROV1 ovarian, 11.4 µM; with SW-620 colon, 3.88 µM. For the same compound, the TGI with DU-145 prostate came to 19.5 µM; in the experiment on MCF7 breast, 6.2 µM; with M14 melanoma, 2.04 µM.

As for `CC(CCCCNC(=O)OC(C)(C)C)NC(=O)NC(C)CCCCNC(=O)OC(C)(C)C` (stereo unspecified), the TGI in the experiment on SNB-19 CNS, in the experiment with HT29 colon, with RXF 393 renal, with PC-3 prostate, in the experiment with IGROV1 ovarian and with SW-620 colon was more than 100 µM in each case. For the same compound, the TGI in the experiment on MOLT-4 leukemia, in the experiment on DU-145 prostate, with MCF7 breast and in the experiment with M14 melanoma was more than 100 µM throughout.

With `CC(NC(=O)c1ccc(OP(=O)(OCc2ccc([N+](=O)[O-])o2)N(C)CCCCCl)cc1)c1ccc(OCC2CCCCC2)c(C(N)=O)c1` (stereo unspecified), the TGI was more than 100 µM in the experiment on SNB-19 CNS; 7.85 µM in the experiment on HT29 colon; 9.25 µM with RXF 393 renal; 49.1 µM in the experiment on PC-3 prostate; 8.34 µM with IGROV1 ovarian; more than 43.1 µM in the experiment on SW-620 colon. Moreover, the TGI with MOLT-4 leukemia was 6.89 µM; in the experiment with DU-145 prostate it was more than 29 µM; with MCF7 breast, 17.1 µM; in the experiment with M14 melanoma it was 22.7 µM.

As for `CCOC(=O)c1cccc(N=Nc2ncc(/C=C/C(=O)OC)[nH]2)c1`, the TGI in the experiment on SNB-19 CNS is more than 100 µM; with HT29 colon, more than 100 µM; with RXF 393 renal, more than 100 µM; in the experiment with PC-3 prostate, more than 100 µM; with IGROV1 ovarian it was 83.8 µM; with SW-620 colon, more than 100 µM. Further, the TGI was 28.9 µM with MOLT-4 leukemia, more than 100 µM in the experiment on DU-145 prostate, 86.2 µM in the experiment on MCF7 breast and 76 µM with M14 melanoma.

For `O=C1/C(=C/c2ccc([N+](=O)[O-])cc2)Sc2scc(-c3cccc([N+](=O)[O-])c3)[n+]21`, the TGI in the experiment with SNB-19 CNS was found to be 31.5 µM; with HT29 colon, 9.35 µM; with RXF 393 renal it was 7.94 µM; in the experiment on PC-3 prostate, 26.8 µM; in the experiment with IGROV1 ovarian, 10.7 µM; in the experiment on SW-620 colon, 3.35 µM. Also, the TGI in the experiment on MOLT-4 leukemia was more than 20.1 µM; with DU-145 prostate it was 23.7 µM; with MCF7 breast it was more than 38.3 µM; in the experiment with M14 melanoma, 17.5 µM.

Regarding `COc1cc(/C=C2\CC3C4CC[C@H]5C[C@@H](O)CC[C@]5(C)C4CC[C@]3(C)\C2=N\O)cc(OC)c1OC` (stereo partly specified), the TGI with SNB-19 CNS is more than 100 µM; in the experiment with HT29 colon, more than 100 µM; with RXF 393 renal it was 36.8 µM; with PC-3 prostate it was 55.1 µM; in the experiment with IGROV1 ovarian it was more than 100 µM; with SW-620 colon, more than 100 µM. Besides, the TGI was 37.5 µM with MOLT-4 leukemia, more than 100 µM in the experiment on DU-145 prostate, 26.8 µM in the experiment on MCF7 breast and 37.3 µM in the experiment with M14 melanoma.

With `CC(C)(C)COS(=O)OCC(C)(C)C`, the TGI in the experiment with SNB-19 CNS, in the experiment with HT29 colon, in the experiment on RXF 393 renal, in the experiment on PC-3 prostate, with IGROV1 ovarian and in the experiment with SW-620 colon was more than 100 µM each time. For the same compound, the TGI in the experiment with MOLT-4 leukemia, in the experiment on DU-145 prostate, in the experiment on MCF7 breast and in the experiment with M14 melanoma was more than 100 µM throughout.

For the compound `Oc1ccc(Cl)cc1C1=Nn2c(COc3ccc4c(c3)CCCC4)nnc2SC1`, the TGI in the experiment on SNB-19 CNS was determined as 50.5 µM; in the experiment with RXF 393 renal it was 32.9 µM; in the experiment on PC-3 prostate, 26.7 µM; in the experiment with IGROV1 ovarian it was 26.3 µM; in the experiment with SW-620 colon, 33 µM; in the experiment with MOLT-4 leukemia, 43.8 µM. For the same compound, the TGI in the experiment with DU-145 prostate came out at 40 µM; in the experiment with MCF7 breast it was 32.5 µM; in the experiment with M14 melanoma it was 29.5 µM.

On to `Cc1c2ccccc2cc2cccc[n+]12`, for which the TGI in the experiment on SNB-19 CNS, with HT29 colon, in the experiment on RXF 393 renal, in the experiment on PC-3 prostate, with IGROV1 ovarian and in the experiment on SW-620 colon was more than 100 µM in each case. Besides, the TGI with MOLT-4 leukemia, in the experiment with DU-145 prostate and with MCF7 breast was more than 100 µM throughout.

As for `O=S(C(c1ccccc1)=P(c1ccccc1)(c1ccccc1)c1ccccc1)c1ccc(Cl)cc1` (stereo unspecified), the TGI with HT29 colon was more than 100 µM; in the experiment on RXF 393 renal, 95.1 µM; with PC-3 prostate, 68.4 µM; with IGROV1 ovarian, more than 100 µM; with SW-620 colon, more than 100 µM; in the experiment on MOLT-4 leukemia it was more than 100 µM. Also, the values for the TGI with DU-145 prostate, in the experiment on MCF7 breast and with M14 melanoma were 42.7 µM, more than 100 µM and more than 100 µM, respectively.
